# Legend:
# Type in all cases: in vivo
# [1] = system: Italian ryegrass (Lolium multiflorum); assay: (8) Herbicidal effect test, pot, spray at 3.0 to 3.1 leaf stage; details: 4th day after spraying
# From the text: (§1) [formula] • X: growth inhibition rate when treated with α (g/ha) of compound A, • Y: growth inhibition rate when treated with β (g/ha) of compound B, • E: growth inhibition rate expected when treated with α (g/ha) of compound A and β (g/ha) of compound B (expected value).
# Upland soil was put in a 1/1,000,000 hectare pot, and seeds of Italian ryegrass (Lolium multiflorum) were sown. When Italian ryegrass reached 3.0 to 3.1 leaf stage, a water-based suspension containing tiafenacil as the active ingredient, prepared by a conventional method for preparing a water-based suspension, and an emulsifiable concentrate containing S-metolachlor as the active ingredient (tradename: Dual Gold, manufactured by Syngenta), a wettable powder containing metribuzin as the active ingredient (tradename: SENCOR wettable powder, manufactured by Bayer Crop Science) or water dispersible granules containing pyroxasulfone as the active ingredient (tradename: Sakura, manufactured by Bayer Crop Science) were diluted with water (in an amount corresponding to 200 liter per hectare) containing 0.5 vol % of an agricultural spreader (tradename: Destiny HC, manufactured by Winfield Solutions, LLC.) and sprayed by a small spray gun (model: W-101-132G, manufactured by ANEST IWATA Corporation). On the 4th day after spraying, the state of growth of the Italian ryegrass was visually observed, and the growth inhibition rate (%) was obtained in accordance with the evaluation standards described in the above (1) herbicidal effect test, and the results are shown in Table 8. Further, the expected value of the growth inhibition rate (%) was calculated in accordance with the Colby's formula described in the above (1) herbicidal effect test, and the results are also shown in Table 8.
# [2] = system: horseweed (Conyza canadensis); assay: (14) Herbicidal effect test, pot, spray at diameter of 12 to 17 cm; details: 6th day after spraying
# From the text: as §1
# Upland soil was put in a 1/1,000,000 hectare pot, and seeds of horseweed (Conyza canadensis) were sown. When the horseweed reached a diameter of 12 to 17 cm, a water-based suspension containing tiafenacil as the active ingredient, prepared by a conventional method for preparing a water-based suspension, and an emulsifiable concentrate containing S-metolachlor as the active ingredient (tradename: Dual Gold, manufactured by Syngenta), a wettable powder containing metribuzin as the active ingredient (tradename: SENCOR wettable powder, manufactured by Bayer Crop Science) or water dispersible granules containing pyroxasulfone as the active ingredient (tradename: Sakura, manufactured by Bayer Crop Science) were diluted with water (in an amount corresponding to 200 liter per hectare) containing 0.5 vol % of an agricultural spreader (tradename: Destiny HC, manufactured by Winfield Solutions, LLC.) and sprayed by a small spray gun (model: W-101-132G, manufactured by ANEST IWATA Corporation). On the 6th day after spraying, the state of growth of the horseweed was visually observed, and the growth inhibition rate (%) was obtained in accordance with the evaluation standards described in the above (1) herbicidal effect test, and the results are shown in Table 14. Further, the expected value of the growth inhibition rate (%) was calculated in accordance with the Colby's formula described in the above (1) herbicidal effect test, and the results are also shown in Table 14.
# [3] = system: horseweed (Conyza canadensis); assay: (15) Herbicidal effect test, pot, spray at diameter of 13 to 19 cm; details: 3rd day after spraying
# From the text: as §1
# Upland soil was put in a 1/1,000,000 hectare pot, and seeds of horseweed (Conyza canadensis) were sown. When the horseweed reached a diameter of 13 to 19 cm, a water-based suspension containing tiafenacil as the active ingredient, prepared by a conventional method for preparing a water-based suspension, and a wettable powder containing tri-allate as the active ingredient, prepared by a conventional method for preparing a wettable powder, an emulsifiable concentrate containing pethoxamid as the active ingredient (tradename: Successor 600, manufactured by Stähler Suisse SA) or an emulsifiable concentrate containing dimethenamid-P as the active ingredient (tradename: Fieldstar P emulsifiable concentrate, manufactured by BASF) were diluted with water (in an amount corresponding to 200 liter per hectare) containing 0.5 vol % of an agricultural spreader (tradename: Destiny HC, manufactured by Winfield Solutions, LLC.) and sprayed by a small spray gun (model: W-101-132G, manufactured by ANEST IWATA Corporation). On the 3rd day after spraying, the state of growth of the horseweed was visually observed, and the growth inhibition rate (%) was obtained in accordance with the evaluation standards described in the above (1) herbicidal effect test, and the results are shown in Table 15. Further, the expected value of the growth inhibition rate (%) was calculated in accordance with the Colby's formula described in the above (1) herbicidal effect test, and the results are also shown in Table 15.
# [4] = system: wheat (cultivar: Norin 61); assay: (21) Plant growth promotion effect test (wheat), Italian ryegrass sown; details: 22nd day after the sowing, above-ground part
# From the text: Upland soil was put in a 1/1,000,000 hectare pot, and seeds of Italian ryegrass (Lolium multiflorum) were sown. When the Italian ryegrass reached 3.3 to 3.8 leaf stage, a water-based suspension containing tiafenacil as the active ingredient, prepared by a conventional method for preparing a water-based suspension, and a wettable powder containing metribuzin as the active ingredient (tradename: SENCOR wettable powder, manufactured by Bayer Crop Science) or water dispersible granules containing pyroxasulfone as the active ingredient (tradename: Sakura, manufactured by Bayer Crop Science) were diluted with water (in an amount corresponding to 200 liter per hectare) containing 0.5 vol % of an agricultural spreader (tradename: Destiny HC, manufactured by Winfield Solutions, LLC.) and sprayed by a small spray gun (model: W-101-132G, manufactured by ANEST IWATA Corporation). Seeds of wheat (cultivar: Norin 61, manufactured by Asahi Noen Seed Co., Ltd.) were sown in the pot after spraying. On the 22nd day after the sowing, the above-ground part of the wheat was reaped, and its weight was measured to obtain the raw weight.
structure (smiles),measurement,setting,value
CCc1cccc(C)c1N(C(=O)CCl)[C@@H](C)COC [S-metolachlor],Growth inhibition rate (%) Measured value,[1]; Dose 281 g/ha,7%
same,Growth inhibition rate (%) Measured value,[1]; Dose 500 g/ha,10%
same,Growth inhibition rate (%) Measured value,[1]; Dose 625 g/ha,13%
same,Growth inhibition rate (%) Measured value,[2]; Dose 7.5 g/ha,0%
same,Growth inhibition rate (%) Measured value,[2]; Dose 375 g/ha,0%
same,Growth inhibition rate (%) Measured value,[2]; Dose 750 g/ha,0%
COC[C@H](C)N(C(=O)CCl)c1c(C)csc1C [dimethenamid-P],Growth inhibition rate (%) Measured value,[3]; Dose 60 g/ha,0%
same,Growth inhibition rate (%) Measured value,[3]; Dose 375 g/ha,0%
same,Growth inhibition rate (%) Measured value,[3]; Dose 750 g/ha,0%
CSc1nnc(C(C)(C)C)c(=O)n1N [metribuzin],inhibition at 125 g/ha,"[1]; Lolium multiflorum, Dose 125 g/ha, read-out: Growth inhibition rate (%) Measured value",3%
same,inhibition at 438 g/ha,"[1]; Lolium multiflorum, Dose 438 g/ha, read-out: Growth inhibition rate (%) Measured value",10%
same,inhibition at 750 g/ha,"[1]; Lolium multiflorum, Dose 750 g/ha, read-out: Growth inhibition rate (%) Measured value",20%
same,inhibition at 938 g/ha,"[1]; Lolium multiflorum, Dose 938 g/ha, read-out: Growth inhibition rate (%) Measured value",33%
same,inhibition at 9.38 g/ha,"[2]; Erigeron canadensis, Dose 9.38 g/ha, read-out: Growth inhibition rate (%) Measured value",0%
same,inhibition at 550 g/ha,"[2]; Erigeron canadensis, Dose 550 g/ha, read-out: Growth inhibition rate (%) Measured value",5%
same,inhibition at 1100 g/ha,"[2]; Erigeron canadensis, Dose 1100 g/ha, read-out: Growth inhibition rate (%) Measured value",5%
same,Raw weight (g) of wheat,[4]; Dose 150 g/ha,2.5 g
CCOCCN(C(=O)CCl)C(=C(C)C)c1ccccc1 [pethoxamid],Growth inhibition rate (%) Measured value,[3]; Dose 93.8 g/ha,0%
same,Growth inhibition rate (%) Measured value,[3]; Dose 375 g/ha,0%
same,Growth inhibition rate (%) Measured value,[3]; Dose 750 g/ha,0%
Cn1nc(C(F)(F)F)c(CS(=O)(=O)C2=NOC(C)(C)C2)c1OC(F)F [pyroxasulfone],inhibition at 188 g/ha,"[1]; Lolium multiflorum, Dose 188 g/ha, read-out: Growth inhibition rate (%) Measured value",10%
same,inhibition at 375 g/ha,"[1]; Lolium multiflorum, Dose 375 g/ha, read-out: Growth inhibition rate (%) Measured value",20%
same,inhibition at 7.5 g/ha,"[2]; Erigeron canadensis, Dose 7.5 g/ha, read-out: Growth inhibition rate (%) Measured value",0%
same,inhibition at 250 g/ha,"[2]; Erigeron canadensis, Dose 250 g/ha, read-out: Growth inhibition rate (%) Measured value",0%
same,inhibition at 500 g/ha,"[2]; Erigeron canadensis, Dose 500 g/ha, read-out: Growth inhibition rate (%) Measured value",0%
same,Raw weight (g) of wheat,[4]; Dose 37.5 g/ha,1.2 g
COC(=O)CCNC(=O)C(C)Sc1cc(-n2c(=O)cc(C(F)(F)F)n(C)c2=O)c(F)cc1Cl (stereo not drawn) [tiafenacil],Growth inhibition rate (%) Measured value,[1]; Dose 6.25 g/ha,20%
same,Growth inhibition rate (%) Measured value,[2]; Dose 6.25 g/ha,23%
same,Growth inhibition rate (%) Measured value,[3]; Dose 6.25 g/ha,17%
same,Raw weight (g) of wheat,[4]; Dose 3 g/ha,2.3 g
CC(C)N(C(=O)SCC(Cl)=C(Cl)Cl)C(C)C [tri-allate],inhibition at 75 g/ha,"[3]; Erigeron canadensis, Dose 75 g/ha, read-out: Growth inhibition rate (%) Measured value",0%
same,inhibition at 625 g/ha,"[3]; Erigeron canadensis, Dose 625 g/ha, read-out: Growth inhibition rate (%) Measured value",5%
same,inhibition at 1250 g/ha,"[3]; Erigeron canadensis, Dose 1250 g/ha, read-out: Growth inhibition rate (%) Measured value",3%
